# Source: the supplement of paper PMC10307832
# Tests used:
# Experiment in all cases: relative viability (nuclei count vs DMSO), 5 days (fraction); higher = more cells survive
# MIM1 = compound: CC1=CSC(=NC2CCCCC2)N1/N=C/C3=C(C(=C(C=C3)O)O)O [MIM1]
# Procedure, shortened: (§1)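 On vehicle-anchored 1536-well plates, lung cancer cell lines held overnight at 37 °C were pinned with five library-drug doses (not always all listed) spaced by √10. With no medium change over 5 days, they were then fixed, permeabilised and Hoechst-stained in one step and imaged at 4×. MetaXpress counted nuclei, and viability is the median across plates of treated-well over vehicle-well nuclei. Acceptance needed control CV below 25% and at least one doubling.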
# Saracatinib = compound: CN1CCN(CCOc2cc(OC3CCOCC3)c3c(Nc4c(Cl)ccc5c4OCO5)ncnc3c2)CC1 [Saracatinib]
# Procedure, shortened: as §1
# Lenalidomide = compound: Nc1cccc2c1CN(C1CCC(=O)NC1=O)C2=O [Lenalidomide]
# Procedure, shortened: as §1
# Nilotinib = compound: Cc1cn(-c2cc(NC(=O)c3ccc(C)c(Nc4nccc(-c5cccnc5)n4)c3)cc(C(F)(F)F)c2)cn1 [Nilotinib]
# Procedure, shortened: as §1
# Luminespib = compound: CCNC(=O)c1noc(-c2cc(C(C)C)c(O)cc2O)c1-c1ccc(CN2CCOCC2)cc1 [Luminespib]
# Procedure, shortened: as §1
Cell Line,relative viability (MIM1; 0.2 µM),relative viability (MIM1; 0.6325 µM),relative viability (MIM1; 2 µM),relative viability (MIM1; 6.325 µM),relative viability (MIM1; 20 µM),relative viability (Saracatinib; 0.02 µM),relative viability (Saracatinib; 0.2 µM),relative viability (Saracatinib; 0.6325 µM),relative viability (Saracatinib; 2 µM),relative viability (Lenalidomide; 0.253 µM),relative viability (Lenalidomide; 0.8 µM),relative viability (Lenalidomide; 2.53 µM),relative viability (Lenalidomide; 8 µM),relative viability (Nilotinib; 0.001 µM),relative viability (Nilotinib; 0.003162 µM),relative viability (Nilotinib; 0.01 µM),relative viability (Nilotinib; 0.03162 µM),relative viability (Nilotinib; 0.1 µM),relative viability (Luminespib; 0.002 µM),relative viability (Luminespib; 0.006325 µM),"relative viability (Luminespib; 0.01 µM, anchor plate)",relative viability (Luminespib; 0.02 µM),relative viability (Luminespib; 0.06325 µM),relative viability (Luminespib; 0.2 µM)
SK-LU-1,1.05,1.08,1.12,0.934,0.617,1.03,0.802,0.707,0.53,0.963,1.03,1.23,0.903,0.932,0.927,1.24,0.718,0.894,1.09,0.777,0.202,0.644,0.186,0.192
NCI-H520,1.02,1.01,1.01,0.859,0.383,1.01,–,0.897,0.494,0.918,0.917,1.14,0.784,0.86,–,1.21,0.896,0.949,1.05,1.02,0.235,0.547,0.163,0.157
HARA,0.903,0.961,0.998,0.365,0.225,0.979,0.852,1.14,0.561,1.11,–,1.13,1.05,0.983,0.981,0.948,0.647,0.569,0.862,0.784,0.834,0.878,0.783,0.131
